From patent US20240336574A1 (LATIGO BIOTHERAPEUTICS, INC., priority 2021, published 2024)
Like-named read-outs stand apart in the source and are kept apart here.

Biological target: T1, recombinant human NaV1.8 stably transfected HEK cells (Homo sapiens, UniProt Q9Y5Y9)
T1 construct: expressed in transfected cells; host or cells: HEK cells, stably transfected
Assay: Compound profiling on NaV1.8, human NaV1.8 cell line, SyncroPatch384PE automated patch clamp assay (Example 102, first set of compounds, Table 16)
Format: cell-based
Conditions: human NaV1.8 HEK cells, Table 16 (first set of compounds)
Method in brief: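 Automated whole-cell patch clamp on HEK cells precultured at 30 °C one day before recording; CsF-based internal, 140 mM NaCl external. 10-point curve, 20–0.001 μM final, 0.1% DMSO, 5 min exposure. IC50 for resting (P1, −120 mV hold) and inactivated (P2, after 10 s at −40 mV) block, normalized to 250 μM tetracaine and DMSO.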

[1] = inactivated state block (P2 measurement), read-out: P2IC50
[2] = resting state block (P1 measurement), read-out: P1IC50

T1 sequence (Q9Y5Y9 whole entry): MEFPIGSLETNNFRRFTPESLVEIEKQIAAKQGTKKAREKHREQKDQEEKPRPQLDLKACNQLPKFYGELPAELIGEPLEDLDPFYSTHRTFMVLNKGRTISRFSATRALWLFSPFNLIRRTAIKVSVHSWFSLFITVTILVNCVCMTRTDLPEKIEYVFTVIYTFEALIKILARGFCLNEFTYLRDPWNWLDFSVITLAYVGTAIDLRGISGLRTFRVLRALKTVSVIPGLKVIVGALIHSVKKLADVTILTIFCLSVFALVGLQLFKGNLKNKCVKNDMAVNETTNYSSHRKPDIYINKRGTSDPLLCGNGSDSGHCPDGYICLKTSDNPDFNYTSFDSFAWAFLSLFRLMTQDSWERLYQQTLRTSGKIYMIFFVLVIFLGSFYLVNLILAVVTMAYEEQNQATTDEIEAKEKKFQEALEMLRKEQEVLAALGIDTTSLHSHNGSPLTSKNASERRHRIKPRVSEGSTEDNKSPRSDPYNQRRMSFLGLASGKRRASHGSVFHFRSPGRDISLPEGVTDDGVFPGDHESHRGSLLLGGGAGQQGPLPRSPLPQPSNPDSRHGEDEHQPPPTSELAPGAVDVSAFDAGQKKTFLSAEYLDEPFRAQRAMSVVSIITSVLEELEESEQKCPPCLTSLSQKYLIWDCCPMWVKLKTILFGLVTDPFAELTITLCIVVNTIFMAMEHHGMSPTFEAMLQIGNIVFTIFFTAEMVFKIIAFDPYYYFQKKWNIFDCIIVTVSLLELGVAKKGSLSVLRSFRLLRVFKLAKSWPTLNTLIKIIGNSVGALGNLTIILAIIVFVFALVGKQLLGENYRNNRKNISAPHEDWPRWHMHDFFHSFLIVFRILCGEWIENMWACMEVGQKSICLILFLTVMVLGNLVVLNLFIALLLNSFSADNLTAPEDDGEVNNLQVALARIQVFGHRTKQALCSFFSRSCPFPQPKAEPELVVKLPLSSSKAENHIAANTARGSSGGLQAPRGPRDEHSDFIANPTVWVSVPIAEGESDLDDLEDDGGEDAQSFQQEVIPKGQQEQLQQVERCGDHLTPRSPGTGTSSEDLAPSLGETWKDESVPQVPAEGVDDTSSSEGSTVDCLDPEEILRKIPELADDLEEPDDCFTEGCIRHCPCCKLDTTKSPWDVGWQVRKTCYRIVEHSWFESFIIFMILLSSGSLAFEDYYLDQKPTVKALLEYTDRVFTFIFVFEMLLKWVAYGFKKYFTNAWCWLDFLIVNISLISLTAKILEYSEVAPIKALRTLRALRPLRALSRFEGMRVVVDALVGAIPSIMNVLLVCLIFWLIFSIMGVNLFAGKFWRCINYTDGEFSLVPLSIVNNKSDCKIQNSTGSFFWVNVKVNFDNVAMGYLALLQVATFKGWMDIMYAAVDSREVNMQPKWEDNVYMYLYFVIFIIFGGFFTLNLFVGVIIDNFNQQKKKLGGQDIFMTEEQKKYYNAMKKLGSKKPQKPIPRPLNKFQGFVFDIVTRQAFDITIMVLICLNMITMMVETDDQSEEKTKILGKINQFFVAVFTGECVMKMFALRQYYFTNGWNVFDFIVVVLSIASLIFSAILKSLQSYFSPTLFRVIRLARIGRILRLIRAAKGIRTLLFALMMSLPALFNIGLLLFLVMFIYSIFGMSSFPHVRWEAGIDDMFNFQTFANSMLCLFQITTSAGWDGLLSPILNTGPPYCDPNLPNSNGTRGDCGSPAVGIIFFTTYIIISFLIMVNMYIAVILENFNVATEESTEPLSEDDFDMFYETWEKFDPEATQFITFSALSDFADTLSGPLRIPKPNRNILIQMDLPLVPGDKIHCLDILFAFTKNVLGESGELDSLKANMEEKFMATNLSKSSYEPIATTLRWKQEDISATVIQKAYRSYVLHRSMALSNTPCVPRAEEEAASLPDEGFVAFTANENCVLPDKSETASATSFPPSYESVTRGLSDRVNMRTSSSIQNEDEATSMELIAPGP

Row | IC50 [1] [nM] | IC50 [2] [nM] | Compound
1 | ≤ 20 | ≤ 20 | Cc1cc(C#N)ccc1Oc1nnc(C(F)(F)F)c(C)c1C(=O)Nc1cccc(S(C)(=O)=O)c1 [Compound 1465, 3-(4-cyano-2-methylphenoxy)-N-(3-methanesulfonylphenyl)-5-methyl-6-(trifluoromethyl)pyridazine-4-carboxamide]
2 | ≤ 20 | ≤ 20 | Cc1cc(F)ccc1Oc1nnc(C(F)(F)F)c(C)c1C(=O)Nc1cccc(S(N)(=O)=O)c1 [Compound 1466, 3-(4-fluoro-2-methylphenoxy)-5-methyl-N-(3-sulfamoylphenyl)-6-(trifluoromethyl)pyridazine-4-carboxamide]
3 | ≤ 20 | ≤ 20 | Cc1c(C(F)(F)F)nnc(Oc2ccc(OC(F)(F)F)cc2F)c1C(=O)Nc1cccc(S(C)(=O)=O)c1 [Compound 1467, 3-[2-fluoro-4-(trifluoromethoxy)phenoxy]-N-(3-methanesulfonylphenyl)-5-methyl-6-(trifluoromethyl)pyridazine-4-carboxamide]
4 | ≤ 20 | ≤ 20 | Cc1nc(C(F)(F)F)ccc1Oc1nnc(C(F)(F)F)c(C)c1C(=O)Nc1cccc(S(C)(=O)=O)c1 [Compound 1468, N-(3-methanesulfonylphenyl)-5-methyl-3-{[2-methyl-6-(trifluoromethyl)pyridin-3-yl]oxy}-6-(trifluoromethyl)pyridazine-4-carboxamide]
5 | ≤ 20 | ≤ 20 | Cc1nc(Br)ccc1Oc1nnc(C(F)(F)F)c(C)c1C(=O)Nc1cccc(S(C)(=O)=O)c1 [Compound 1469, 3-[(6-bromo-2-methylpyridin-3-yl)oxy]-N-(3-methanesulfonylphenyl)-5-methyl-6-(trifluoromethyl)pyridazine-4-carboxamide]
6 | ≤ 20 | ≤ 20 | Cc1c(Oc2nnc(C(F)(F)F)c(C)c2C(=O)Nc2cccc(S(C)(=N)=O)c2)ccc(Cl)c1F (stereo not shown) [Compound 1486, 3-(4-chloro-3-fluoro-2-methyl-phenoxy)-5-methyl-N-[3-(methylsulfonimidoyl)phenyl]-6-(trifluoromethyl)pyridazine-4-carboxamide]
7 | ≤ 20 | ≤ 20 | COc1c(Oc2nnc(C(F)(F)F)c(C)c2C(=O)Nc2cccc(S(C)(=N)=O)c2)ccc(Cl)c1F (stereo not shown) [Compound 1489, 3-(4-chloro-3-fluoro-2-methoxy-phenoxy)-5-methyl-N-[3-(methylsulfonimidoyl)phenyl]-6-(trifluoromethyl)pyridazine-4-carboxamide]
8 | ≤ 20 | ≤ 20 | Cc1c(C(F)(F)F)nnc(Oc2ccc(OC(F)(F)F)cc2F)c1C(=O)Nc1cccc(S(C)(=N)=O)c1 (stereo not shown) [Compound 1495, 3-[2-fluoro-4-(trifluoromethoxy)phenoxy]-5-methyl-N-[3-(methylsulfonimidoyl)phenyl]-6-(trifluoromethyl)pyridazine-4-carboxamide]
9 | ≤ 20 | ≤ 20 | Cc1c(C(F)(F)F)nnc(Oc2ccc(OC(C)C)c(F)c2F)c1C(=O)Nc1cccc(S(C)(=N)=O)c1 (stereo not shown) [Compound 1501, 3-[2,3-difluoro-4-(propan-2-yloxy)phenoxy]-N-{3-[imino(methyl)oxo-λ^6-sulfanyl]phenyl}-5-methyl-6-(trifluoromethyl)pyridazine-4-carboxamide]
10 | ≤ 20 | ≤ 20 | COc1ccc(Oc2nnc(C(F)(F)F)c(C)c2C(=O)Nc2cccc(S(C)(=N)=O)c2)c(C)c1F (stereo not shown) [Compound 1504, 3-(3-fluoro-4-methoxy-2-methylphenoxy)-N-{3-[imino(methyl)oxo-λ^6-sulfanyl]phenyl}-5-methyl-6-(trifluoromethyl)pyridazine-4-carboxamide]
11 | 40 to 200 | 40 to 200 | COc1ccc(Oc2nnc(C(F)(F)F)c(C)c2C(=O)Nc2cccc(S(C)(=N)=O)c2)c(C)n1 (stereo not shown) [Compound 1507, N-{3-[imino(methyl)oxo-λ^6-sulfanyl]phenyl}-3-[(6-methoxy-2-methylpyridin-3-yl)oxy]-5-methyl-6-(trifluoromethyl)pyridazine-4-carboxamide]
12 | ≤ 20 | ≤ 20 | Cc1c(Oc2nnc(C(F)(F)F)c(C)c2C(=O)Nc2cccc(S(C)(=N)=O)c2)ccc(OC(F)(F)F)c1F (stereo not shown) [Compound 1515, 3-[3-fluoro-2-methyl-4-(trifluoromethoxy)phenoxy]-N-{3-[imino(methyl)oxo-λ^6-sulfanyl]phenyl}-5-methyl-6-(trifluoromethyl)pyridazine-4-carboxamide]
13 | 20 to 40 | ≤ 20 | COc1cc(F)ccc1Oc1nnc(C(F)(F)F)c(OC)c1C(=O)Nc1cccc([S@@](C)(=N)=O)c1 [Compound 1517, (S)-3-(4-fluoro-2-methoxyphenoxy)-5-methoxy-N-(3-(S-methylsulfonimidoyl)phenyl)-6-(trifluoromethyl)pyridazine-4-carboxamide]
14 | ≤ 20 | ≤ 20 | CCc1c(C(F)(F)F)nnc(Oc2ccc(F)cc2OC)c1C(=O)Nc1cccc([S@@](C)(=N)=O)c1 [Compound 1518, (S)-5-ethyl-3-(4-fluoro-2-methoxyphenoxy)-N-(3-(S-methylsulfonimidoyl)phenyl)-6-(trifluoromethyl)pyridazine-4-carboxamide]
15 | 20 to 40 | 20 to 40 | Cc1cc(F)ccc1Oc1nnc(C(F)(F)F)c(C2CC2)c1C(=O)Nc1cccc([S@@](C)(=N)=O)c1 [Compound 1519, (S)-5-cyclopropyl-3-(4-fluoro-2-methylphenoxy)-N-(3-(S-methylsulfonimidoyl)phenyl)-6-(trifluoromethyl)pyridazine-4-carboxamide]

More lines, now with the values behind:

Row | Compound | IC50 [1] [nM] | IC50 [2] [nM]
16 | Cc1c(C(F)(F)F)nnc(OCC23CC(F)(C2)C3)c1C(=O)Nc1cccc(S(C)(=N)=O)c1 (stereo not shown) [Compound 1470, 3-[(3-fluoro-1-bicyclo[1.1.1]pentanyl)methoxy]-5-methyl-N-[3-(methylsulfonimidoyl)phenyl]-6-(trifluoromethyl)pyridazine-4-carboxamide] | 200 to 500 | 200 to 500
17 | COc1c(Oc2nnc(C(F)(F)F)c(C)c2C(=O)Nc2cccnc2)ccc(F)c1F [Compound 1475, 3-(3,4-difluoro-2-methoxy-phenoxy)-5-methyl-N-(3-pyridyl)-6-(trifluoromethyl)pyridazine-4-carboxamide] | ≤ 20 | ≤ 20
18 | COc1c(Oc2nnc(C(F)(F)F)c(C)c2C(=O)Nc2ccc[n+]([O-])c2)ccc(F)c1F [Compound 1476, 3-(3,4-difluoro-2-methoxy-phenoxy)-5-methyl-N-(1-oxidopyridin-1-ium-3-yl)-6-(trifluoromethyl)pyridazine-4-carboxamide] | ≤ 20 | ≤ 20
19 | Cc1c(C(F)(F)F)nnc(Oc2ccc(OC3CCC3)c(F)c2F)c1C(=O)Nc1cccc(S(C)(=N)=O)c1 (stereo not shown) [Compound 1492, 3-[4-(cyclobutoxy)-2,3-difluoro-phenoxy]-5-methyl-N-[3-(methylsulfonimidoyl)phenyl]-6-(trifluoromethyl)pyridazine-4-carboxamide] | ≤ 20 | ≤ 20
20 | Cc1nc(OC2CCC2)ccc1Oc1nnc(C(F)(F)F)c(C)c1C(=O)Nc1cccc(S(C)(=N)=O)c1 (stereo not shown) [Compound 1498, 3-[(6-cyclobutoxy-2-methylpyridin-3-yl)oxy]-N-{3-[imino(methyl)oxo-λ^6-sulfanyl]phenyl}-5-methyl-6-(trifluoromethyl)pyridazine-4-carboxamide] | 40 to 200 | 40 to 200
21 | Cc1c(C(F)(F)F)nnc(Oc2ccc(C(N)=O)cc2)c1C(=O)Nc1cccc(S(C)(=N)=O)c1 (stereo not shown) [Compound 1513, 3-(4-carbamoylphenoxy)-N-{3-[imino(methyl)oxo-λ^6-sulfanyl]phenyl}-5-methyl-6-(trifluoromethyl)pyridazine-4-carboxamide] | 200 to 500 | 200 to 500
22 | Cc1c(C(F)(F)F)nnc(Oc2c(F)cc(OC(F)(F)F)cc2F)c1C(=O)Nc1cccc(S(C)(=N)=O)c1 (stereo not shown) [Compound 1514, 3-[2,6-difluoro-4-(trifluoromethoxy)phenoxy]-N-{3-[imino(methyl)oxo-λ^6-sulfanyl]phenyl}-5-methyl-6-(trifluoromethyl)pyridazine-4-carboxamide] | 40 to 200 | 40 to 200
23 | COc1c(Oc2nnc3c(c2C(=O)Nc2cccc(S(C)(=N)=O)c2)CCC3)ccc(F)c1F (stereo not shown) [Compound 1516, 3-(3,4-difluoro-2-methoxyphenoxy)-N-{3-[imino(methyl)oxo-λ^6-sulfanyl]phenyl}-5H,6H,7H-cyclopenta[c]pyridazine-4-carboxamide] | 200 to 500 | 200 to 500
24 | Cc1cc(F)ccc1Oc1nnc(C(F)(F)F)c(-c2ccccc2)c1C(=O)Nc1cccc([S@@](C)(=N)=O)c1 [Compound 1520, (S)-3-(4-fluoro-2-methylphenoxy)-N-(3-(S-methylsulfonimidoyl)phenyl)-5-phenyl-6-(trifluoromethyl)pyridazine-4-carboxamide] | 200 to 500 | 200 to 500
25 | Cc1cc(F)ccc1Oc1nnc(C(F)(F)F)c(-c2cnn(C)c2)c1C(=O)Nc1cccc([S@@](C)(=N)=O)c1 [Compound 1521, (S)-3-(4-fluoro-2-methylphenoxy)-5-(1-methyl-1H-pyrazol-4-yl)-N-(3-(S-methylsulfonimidoyl)phenyl)-6-(trifluoromethyl)pyridazine-4-carboxamide] | 200 to 500 | 200 to 500
26 | Cc1cc(F)ccc1Oc1nnc(C(F)(F)F)c(NC2CC2)c1C(=O)Nc1cccc([S@@](C)(=N)=O)c1 [Compound 1522, (S)-5-(cyclopropylamino)-3-(4-fluoro-2-methylphenoxy)-N-(3-(S-methylsulfonimidoyl)phenyl)-6-(trifluoromethyl)pyridazine-4-carboxamide] | 200 to 500 | 200 to 500
